Reference: patent US20210161146A1, “COMPOSITIONS AND METHODS FOR INHIBITING PATHOGENS ON PLANTS” (CH2O INCORPORATED, priority 2018, published 2021)

Key:
[1] = tested on: Erwinia amylovora ("Fire Blight"); conditions: before the ClO2 trial; cited from earlier work
[2] = tested on: Red Blotch Virus (Grablovirus or GRBav); assay: Field trials on grape vines infected with Red Blotch Virus; format: in vivo
Description: Field trials were performed on grape vines infected with Red Blotch Virus (Grablovirus or GRBav).
Grape vines were treated with (36% 36% hydrochloric acid, 8% 60% active HEDPA, 0.5% 120 grain vinegar, 0.5% 85% phosphoric acid, and 55% water, all by weight) and (3.1% 60% active HEDPA, 1.6% 45% active potassium hydroxide, […], all by weight). ClO2 was made using a CH2O-ClO2 generator, and applied using an orchard sprayer. 200 gallons of treated water was applied per acre, and the treated water contained 15 ppm ClO2. The air temperature was 70° F.-90° F. on the days of application.
Half of the treated rows were pruned with shears dipped in water containing 30 to 50 ppm chlorine bleach.

Jack Frost Blight = assay: Orchard #6 field treatment of blight-infected apple trees; format: in vivo
Description: Apple trees at Orchard #6 infected with Jack Frost Blight (FIGS. 9A, 9B and 9C) were treated with 2 ppm (FIG. 10A), 5 ppm, 10 ppm (FIG. 10B) or 25 ppm (FIG. 10C) of ClO2. While blight was easily found in untreated areas of the block, only 2 strikes were found in the 2 ppm test area, no strikes were found in the 5 ppm area, 1 strike was found in the 10 ppm area, and 1 strike was found at the very end of the 25 ppm area (it is unclear whether that part of the area was actually treated or treated fully).

[3] = tested on: Erwinia amylovora ("Fire Blight"); assay: Field experiment in apple and pear tree orchard infected with Fire Blight; format: in vivo
Description: An apple and pear tree orchard infected with Erwinia amylovora (“Fire Blight”) was treated with 2 ppm, 5 ppm, 10 ppm, and 25 ppm ClO2 as described herein. Previous unsuccessful treatments included foliar medications and metal (Cu) suspended in oil, and Tetramyacin and Oxytetracycline application. These are very expensive medication option(s) that are becoming obsolete w/resistance.
The treatment protocol at this orchard included a three step approach: a) irrigation water; b) topical application before first bloom (e.g., begin topical treatment before primary bloom event and all the way through second blooming event); and c) ooze treatment/vector suppression. Given the timing of this trial, only step C is relevant.
Trees were sprayed when the temperature reached a minimum of 50° F. The temperature for treating bacterial ooze should be between 75-90° F., with highest “safe” rates of ClO2 used to prevent spread through insect and pollination activity. The residual phosphorus (from phosphonates) should have lasting protection properties even days after a topical application.
Rows were marked based on the concentration of ClO2 to be applied. Each concentration rate was applied slowly over four rows of trees. Two rows of trees were left untreated between each of the treated rows to prevent drift. After an application at a particular concentration was complete, the pump speed was increased or decreased to adjust the ClO2 concentration for the next application.

| Compound | outcome of previous treatments of the orchard [1] | less GRBav than the untreated control area ([2]; 15 ppm ClO2, 200 gallons per acre, pruned with ClO2-sanitized shears) | less virus than the untreated control area ([2]; 15 ppm ClO2, 200 gallons per acre, pruned with shears dipped in chlorine bleach) | reduction in the amount of virus on the grape plants ([2]; 15 ppm ClO2, both pruning groups) | blight strikes found in test area (Jack Frost Blight; 2 ppm ClO2 test area) [strikes] | blight strikes found in test area (Jack Frost Blight; 5 ppm ClO2 area) | blight strikes found in test area (Jack Frost Blight; 10 ppm ClO2 area) [strike] | blight strikes found in test area (Jack Frost Blight; 25 ppm ClO2 area, very end (unclear whether treated fully)) [strike] | new blight strikes observed ([3]; 2 ppm zone) | new blight found ([3]; remaining test zones (5 ppm, 10 ppm, 25 ppm)) | ClO2 concentration effective for disease control ([3]; topical spray on infected trees) [ppm] |
| --- | --- | --- | --- | --- | --- | --- | --- | --- | --- | --- | --- |
| Tetramyacin | unsuccessful |  |  |  |  |  |  |  |  |  |  |
| [O][Cl+][O-] [ClO2, chlorine dioxide] |  | approximately 85% | approximately 75% | 75-85% | 2 | no strikes | 1 | 1 | One | no new blight | ≥ 5 |
